The record followed here is US4894388A, “Glycosidase inhibitors and use thereof” (priority 1988, dated 1990).

Assay [1] concerns the target T1, cytosolic (neutral) α-D-mannosidase (Homo sapiens, UniProt Q9NTJ4).
T1 construct: Post mortem human liver, which had been stored at -20° C; from tissue; host or cells: post mortem human liver, 37,000 g supernatant; concanavalin A-Sepharose fraction
T1 sequence (Q9NTJ4 1-1040): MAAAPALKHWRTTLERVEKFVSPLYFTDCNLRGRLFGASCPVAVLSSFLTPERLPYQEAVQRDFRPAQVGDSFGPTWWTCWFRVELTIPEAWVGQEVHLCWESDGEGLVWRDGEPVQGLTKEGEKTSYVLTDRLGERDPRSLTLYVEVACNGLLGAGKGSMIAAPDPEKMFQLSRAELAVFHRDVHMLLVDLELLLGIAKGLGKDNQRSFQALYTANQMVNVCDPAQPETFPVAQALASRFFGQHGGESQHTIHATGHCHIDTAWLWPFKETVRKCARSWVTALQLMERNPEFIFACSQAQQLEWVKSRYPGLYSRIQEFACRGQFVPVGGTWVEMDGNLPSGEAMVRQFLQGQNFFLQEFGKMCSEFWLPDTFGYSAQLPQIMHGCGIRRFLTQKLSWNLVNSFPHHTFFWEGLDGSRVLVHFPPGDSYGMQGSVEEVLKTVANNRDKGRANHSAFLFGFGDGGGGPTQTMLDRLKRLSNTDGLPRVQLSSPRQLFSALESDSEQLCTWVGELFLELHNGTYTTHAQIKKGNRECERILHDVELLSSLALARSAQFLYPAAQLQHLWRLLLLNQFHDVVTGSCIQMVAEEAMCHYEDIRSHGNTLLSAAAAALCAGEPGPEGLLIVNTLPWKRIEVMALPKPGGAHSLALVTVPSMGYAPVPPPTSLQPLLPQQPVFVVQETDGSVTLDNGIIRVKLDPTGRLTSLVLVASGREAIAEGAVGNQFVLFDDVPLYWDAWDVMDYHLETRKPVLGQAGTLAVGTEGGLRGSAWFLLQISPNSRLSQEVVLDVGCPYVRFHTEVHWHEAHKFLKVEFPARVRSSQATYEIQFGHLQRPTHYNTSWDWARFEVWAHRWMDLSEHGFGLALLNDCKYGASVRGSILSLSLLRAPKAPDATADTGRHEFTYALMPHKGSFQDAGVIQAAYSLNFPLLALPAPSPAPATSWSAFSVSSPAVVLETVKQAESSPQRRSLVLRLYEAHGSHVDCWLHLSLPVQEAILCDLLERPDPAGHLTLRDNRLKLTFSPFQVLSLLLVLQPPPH
The experiment in a line: Inhibition of cytosolic (neutral) α-D-mannosidase, fluorigenic 4-methylumbelliferyl glycoside substrate. The conditions noted are these: for inhibition at 1000 µM: 1 mM inhibitor, 0.5 mM substrate, pH 6.5, mean of 2-4 determinations. The assay is classed as biochemical. How it is done: (§1) Post mortem human liver, which had been stored at -20° C. until required was homogenized in deionized water (50%, w/v) in a Potter-Elvehjem homogenizer and then centrifuged at 37,000 g for 30 min in an MSE 18 centrifuge. The resultant supernatant was used as the source of enzymic activities.
(§2) The glycosidase activities in an extract of normal human liver were assayed by using the appropriate fluorigenic 4-methylumbelliferyl glycoside substrate (Koch-Light, Haverhill, Suffolk, U.K.) with a concentration of 0.5 mM at the optimal pH of each enzyme [Burditt et al., Clin. Chim. Acta 140, 201-209 (1980)]. Human liver acidic (lysomal) and neutral (cystosolic) α-D-mannosidases were assayed similarly at their pH-optima, of 4.0 and 6.5, respectively, after separation by affinity chromatography on concanavalin A-Sepharose® (Pharmacia Ltd, Milton Keynes, Bucks, U.K.) [Phillips et al., Biochem. J. 153, 579-587 (1976)]. The residual intermediate (Golgi) α-mannosidase II activity in extracts of fibroblasts from a patient with the lysosomal storage disease, mannosidosis, was assayed at pH 5.75 using the synthetic substrate (Burditt et al, Ibid.). The specificity of the inhibitors was determined by assaying the glycosidases in the presence and absence of a 1 mM solution of each compound. The nature of the inhibition and the value of Ki were determined using the Dixon graphical procedure.
(§3) Enzymic activities were measured in the presence and absence of 1 mM inhibitor. Inhibition (%) was calculated as the fraction of activity lost in the presence of inhibitor. The values are means of two to four independent determinations.

The next assay deals with T2, β-D-mannosidase (Homo sapiens, UniProt O00462).
T2 construct: The glycosidase activities in an extract of normal human liver were assayed; from tissue; host or cells: post mortem human liver, 37,000 g supernatant
T2 sequence (O00462 18-879): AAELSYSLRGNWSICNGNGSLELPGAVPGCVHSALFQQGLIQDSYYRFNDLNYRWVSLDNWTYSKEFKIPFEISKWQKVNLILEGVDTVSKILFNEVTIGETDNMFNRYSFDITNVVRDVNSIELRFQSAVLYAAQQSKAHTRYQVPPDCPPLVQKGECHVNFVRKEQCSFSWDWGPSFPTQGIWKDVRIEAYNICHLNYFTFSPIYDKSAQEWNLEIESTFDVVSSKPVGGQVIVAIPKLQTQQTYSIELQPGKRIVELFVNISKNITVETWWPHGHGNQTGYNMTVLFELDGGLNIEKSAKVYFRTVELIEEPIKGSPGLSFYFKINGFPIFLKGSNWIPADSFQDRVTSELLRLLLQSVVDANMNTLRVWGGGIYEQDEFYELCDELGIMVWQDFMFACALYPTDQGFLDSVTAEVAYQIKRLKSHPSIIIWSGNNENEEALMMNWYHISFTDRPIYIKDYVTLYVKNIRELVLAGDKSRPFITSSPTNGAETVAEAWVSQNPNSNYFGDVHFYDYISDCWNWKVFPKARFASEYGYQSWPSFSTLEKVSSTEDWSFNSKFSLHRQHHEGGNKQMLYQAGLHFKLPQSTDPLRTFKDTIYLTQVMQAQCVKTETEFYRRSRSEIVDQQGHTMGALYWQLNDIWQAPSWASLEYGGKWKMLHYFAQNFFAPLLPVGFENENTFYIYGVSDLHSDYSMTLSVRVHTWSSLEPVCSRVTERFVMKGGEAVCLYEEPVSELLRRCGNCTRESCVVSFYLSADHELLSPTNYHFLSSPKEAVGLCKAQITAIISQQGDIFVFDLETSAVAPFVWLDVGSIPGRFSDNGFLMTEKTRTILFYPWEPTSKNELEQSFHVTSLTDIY
In words: Inhibition of β-D-mannosidase in human liver extract. The conditions noted are these: 1 mM inhibitor; 0.5 mM substrate; optimal pH; mean of 2-4 determinations. The assay is classed as biochemical. The protocol: as §1, §2, §3

By inhibition is commonly meant the drop in the measured response relative to a control, in per cent. As to `OC[C@H](O)[C@@H]1NC[C@@H](O)[C@H]1O` [DIA, 1,4-dideoxy-1,4-imino-L-allitol], the inhibition at 1000 µM came to 61% in assay [1] and 14% on β-D-mannosidase. For the same compound, in assay [1] (relative to α-D-mannosidase II), the “inhibition of neutral cytosolic α-D-mannosidase (in words)” value was “to a lesser extent”.
As for `CN1C[C@@H](O)[C@@H](O)[C@@H]1[C@@H](O)CO` [N-methyl DIA, N-methyl-1,4-dideoxy-1,4-imino-L-allitol], the inhibition at 1000 µM was found to be 20% in assay [1] and 4% against β-D-mannosidase.
The matching figures for `OC[C@H](O)[C@H]1[C@H](O)[C@H](O)CN1Cc1ccccc1` [N-benzyl DIA, N-benzyl-1,4-dideoxy-1,4-imino-L-allitol]: 4% and 0%.
